Test results: patent US9023616B2, “Oil producing microbes and method of modification thereof” (DSM Nutritional Products AG, priority 2006, dated 2015)

Experiments:
ONC-T18 [1] = assay: Fatty acid production antagonist supplementation of ONC-T18 culture, fatty acid profile by FAME GC-FID; assay type: cell-based, Thraustochytrium sp. ONC-T18; conditions: for DHA accumulated in ONC-T18, change versus control (in words): antagonist added to medium; for adrenic acid, lipid as percentage of total fatty acid / arachidic acid, lipid as percentage of total fatty acid / arachidonic acid, lipid as percentage of total fatty acid / behenic acid, lipid as percentage of total fatty acid / docosadienoic acid, lipid as percentage of total fatty acid / docosahexaenoic acid, lipid as percentage of total fatty acid / docosapentaenoic acid n-3, lipid as percentage of total fatty acid / docosapentaenoic acid n-6, lipid as percentage of total fatty acid / eicosadienoic acid, lipid as percentage of total fatty acid / eicosapentaenoic acid, lipid as percentage of total fatty acid / eicosatetraenoic acid, lipid as percentage of total fatty acid / eicosatrienoic acid, lipid as percentage of total fatty acid / eicosenoic acid, lipid as percentage of total fatty acid / heneicosapentaenoic acid, lipid as percentage of total fatty acid / hexacosanoic acid, lipid as percentage of total fatty acid / homo-gamma-linolenic acid, lipid as percentage of total fatty acid / lignoceric acid, lipid as percentage of total fatty acid / margaric acid, lipid as percentage of total fatty acid / myristic acid, lipid as percentage of total fatty acid / myristoleic acid, lipid as percentage of total fatty acid / nervonic acid, lipid as percentage of total fatty acid / oleic acid, lipid as percentage of total fatty acid / palmitic acid, lipid as percentage of total fatty acid / palmitoleic acid, lipid as percentage of total fatty acid / pentadecanoic acid, lipid as percentage of total fatty acid / pentadecenoic acid, lipid as percentage of total fatty acid / stearic acid, lipid as percentage of total fatty acid / vaccenic acid, lipid as percentage of total fatty acid: presence of the antagonist, oleic acid without glucose
Procedure: Media containing 25 g/l sea salt and 1 g/l yeast extract was autoclaved at 120° C. for 20 minutes. Sterilized glucose was added to the media at a concentration of 9 g/l. Sethoxydim (Supleco) was dissolved in dimethyl sulfoxide at a concentration of 5 mg/ml was then added to the media at to represent a final concentration of 100 µM. 1 ml of a 24 hour pre-culture of ONC-T 18 that had been cultured in the same media was added. Culturing was carried out in a shaker (130 rpm) for four days at room temperature. After the incubation period, cells were harvested by centrifugation at 4300 rpm for 10 minutes. The cell pellets were then freeze-dried, weighed and the oil was extracted from the cells.
(§1) The lipids were extracted and derivatized to fatty acid methyl esters (FAME) for gas chromatography analysis (GC). Transesterification and extraction was done using 200 mg freeze dried cells, with C19:0 as internal standard, added transesterification reaction mix (methanol:hydrochloric acid:chloroform, 10:1:1) mixed and heated at 90° C. for 2 hours, then allowed to cool at room temperature. FAMEs were extracted by adding 1 ml water, and 2 ml hexane:chloroform (4:1), and allow organic and aqueous phases to separate. The organic layer was extracted and treated with 0.5 g of anhydrous sodium sulfate to remove particulates and residual water. The organic solvents were evaporated under a stream of argon. The FAMEs were re-suspended in 5 ml of iso-octane and analyzed by GC-FID. The percent conversion was calculated by dividing the product produced by the sum of (the product produced plus the substrate added) and then multiplying by 100.
Media containing 6 g/l sea salt, 2 g/l yeast extract, and 8 g/l L-glutamic acid monosodium salt hydrate was autoclaved at 120° C. for 20 minutes. Sterilized D+-glucose was then added to this media at a concentration of 40 g/l. Cerulenin dissolved in ethanol at a concentration of 5 mg/ml was added to 250 ml flask and the solvent was evaporated for 1 hour prior to adding the media to the flask. The amount of cerulenin in the flask represented a final concentration of 20 mg/l. ONC-T18 was then added to the medium from a plate culture and culturing occurred in a shaker (130 rpm) at room temperature for four days. After the incubation period, cells were harvested by centrifugation at 4300 rpm for 10 minutes, washed once with distilled water, and then centrifuged again at 4300 rpm for 10 minutes. The cell pellets were then freeze-dried, weighed and the oil was extracted from the cells.
as §1, with “produced+the” for “produced plus the”
Media containing 6 g/l sea salt, 2 g/l yeast extract, and 8 g/l L-glutamic acid monosodium salt hydrate was autoclaved at 120° C. for 20 minutes. Sterilized D+-glucose wad then added at a concentration of 5 g/l or was not added to the media. Oleic acid was added to the media to represent a final concentration of 2 ml/l. […]

ONC-T18 [2] = assay: Carotenoid content of ONC-T18 exposed to Norflurazon; assay type: cell-based, Thraustochytrium sp. ONC-T18
Procedure: Cells were harvested by centrifugation at 3800×g and washed with phosphate buffered saline. Then resuspended in 10× volume of acetone (Sigma-Aldrich, St Louis, Mo., USA), agitated for 5 minutes at 200 RPM, centrifuged at 3,800×g for 5 mins and concentrated to dryness by N2 evaporation. Followed by resuspension in a minimal amount of 10% acetone in hexane prior to HPLC analysis. Identifications were carried out on an Agilent 1100 HPLC (Agilent, Palo Alto, Calif., USA) equipped with a variable wavelength detector set at 470 nm. Samples were injected through a Symmetry C18 guard column (Waters, Milford, Mass., USA) to a Bondclone C18 reverse-phase column (Phenomenex, Torrance, Calif., USA; […] particles; 3.9×300 mm i.d.). The injection volume was 10 μl and a flow of 1 ml min^−1 10% acetone in hexane over a 25 minute period was used. Carotenoid identity was further confirmed with mass spectrometry analysis (Micromass ESI-QT of MS, Waters, Milford, Mass., USA). Quantitative data for each carotenoid was based on the development of a calibration curve using standards (astaxanthin, zeaxanthin, canthaxanthin, echinenone and β-carotene) and comparing peak area with defined concentrations.

[3] = system: Schizochytrium limacinum SR21; conditions: dose dependant; cited from earlier work
ONC-T18 [4] = assay: 13C labeled oleic acid incorporation into polyunsaturated fatty acids; assay type: cell-based, Thraustochytrium sp. ONC-T18; conditions: added to culture medium

Compound | adrenic acid, lipid as percentage of total fatty acid (ONC-T18 [1]) | arachidic acid, lipid as percentage of total fatty acid (ONC-T18 [1]) | arachidonic acid, lipid as percentage of total fatty acid (ONC-T18 [1]) | behenic acid, lipid as percentage of total fatty acid (ONC-T18 [1]) | docosadienoic acid, lipid as percentage of total fatty acid (ONC-T18 [1]) | docosahexaenoic acid, lipid as percentage of total fatty acid (ONC-T18 [1]) | docosapentaenoic acid n-3, lipid as percentage of total fatty acid (ONC-T18 [1]) | docosapentaenoic acid n-6, lipid as percentage of total fatty acid (ONC-T18 [1]) | eicosadienoic acid, lipid as percentage of total fatty acid (ONC-T18 [1]) | eicosapentaenoic acid, lipid as percentage of total fatty acid (ONC-T18 [1]) | eicosatetraenoic acid, lipid as percentage of total fatty acid (ONC-T18 [1]) | eicosatrienoic acid, lipid as percentage of total fatty acid (ONC-T18 [1]) | eicosenoic acid, lipid as percentage of total fatty acid (ONC-T18 [1]) | heneicosapentaenoic acid, lipid as percentage of total fatty acid (ONC-T18 [1]) | hexacosanoic acid, lipid as percentage of total fatty acid (ONC-T18 [1]) | homo-gamma-linolenic acid, lipid as percentage of total fatty acid (ONC-T18 [1]) | lignoceric acid, lipid as percentage of total fatty acid (ONC-T18 [1]) | margaric acid, lipid as percentage of total fatty acid (ONC-T18 [1]) | myristic acid, lipid as percentage of total fatty acid (ONC-T18 [1]) | myristoleic acid, lipid as percentage of total fatty acid (ONC-T18 [1]) | further results
CNc1cnn(-c2cccc(C(F)(F)F)c2)c(=O)c1Cl [norflurazon] | 0.17% | 0.16% | 0.19% | 0.05% | 0.03% | 20.61% | 0.19% | 5.23% | 0.13% | 0.76% | 0.24% | 0.00% | 0.02% | 0.00% | 0.00% | 0.18% | 0.00% | 1.03% | 11.08% | 0.12% | DHA accumulated in ONC-T18, change versus control (in words) (ONC-T18 [1]): increase in the content and proportion of DHA; DHA accumulated in ONC-T18, change versus control (in words) (ONC-T18 [1]; listed as Norflurazon): DHA increase; proportion of PUFA in ONC-T18 fatty acid profile (in words) (ONC-T18 [1]; increasing amount added): proportion of PUFA increased; nervonic acid, lipid as percentage of total fatty acid (ONC-T18 [1]): 0.00%; oleic acid, lipid as percentage of total fatty acid (ONC-T18 [1]): 0.00%; palmitic acid, lipid as percentage of total fatty acid (ONC-T18 [1]): 40.61%; palmitoleic acid, lipid as percentage of total fatty acid (ONC-T18 [1]): 10.65%; pentadecanoic acid, lipid as percentage of total fatty acid (ONC-T18 [1]): 3.16%; pentadecenoic acid, lipid as percentage of total fatty acid (ONC-T18 [1]): 0.33%; stearic acid, lipid as percentage of total fatty acid (ONC-T18 [1]): 1.52%; vaccenic acid, lipid as percentage of total fatty acid (ONC-T18 [1]): 3.53%; carotenoid content of ONC-T18 (in words) (ONC-T18 [2]): carotenoid content decreased
Cc1ccc(C(=O)O)cc1 [p-toluic acid] | – | – | – | – | – | – | – | – | – | – | – | – | – | – | – | – | – | – | – | – | EPA concentration (in words) [3]: increasing the EPA concentration; omega-6 DPA concentration (in words) [3]: reducing the omega-6 DPA concentration
CCC/C(=N\OCC)C1=C(O)CC(CC(C)SCC)CC1=O (centres unmarked) [sethoxydim] | 0.00% | 0.2% | 0.20% | 0.00% | 0.00% | 19.31% | 0.24% | 5.26% | 0.14% | 0.78% | 0.37% | 0.00% | 0.00% | 1.09% | 0.20% | 0.10% | 0.00% | 1.49% | 10.97% | 0.03% | DHA accumulated in ONC-T18, change versus control (in words) (ONC-T18 [1]): increase in the content and proportion of DHA; nervonic acid, lipid as percentage of total fatty acid (ONC-T18 [1]): 0.00%; oleic acid, lipid as percentage of total fatty acid (ONC-T18 [1]): 0.18%; palmitic acid, lipid as percentage of total fatty acid (ONC-T18 [1]): 40.52%; palmitoleic acid, lipid as percentage of total fatty acid (ONC-T18 [1]): 9.18%; pentadecanoic acid, lipid as percentage of total fatty acid (ONC-T18 [1]): 5.5%; pentadecenoic acid, lipid as percentage of total fatty acid (ONC-T18 [1]): 0.53%; stearic acid, lipid as percentage of total fatty acid (ONC-T18 [1]): 1.45%; vaccenic acid, lipid as percentage of total fatty acid (ONC-T18 [1]): 2.48%
Cc1ccccc1C(=O)O [toluic acid] | 0.46% | 0.23% | 0.90% | 0.00% | 0.06% | 23.03% | 0.54% | 5.95% | 0.79% | 2.95% | 0.36% | 0.03% | 0.14% | 0.39% | 0.00% | 0.17% | 0.03% | 2.69% | 11.19% | 0.00% | nervonic acid, lipid as percentage of total fatty acid (ONC-T18 [1]): 0.18%; oleic acid, lipid as percentage of total fatty acid (ONC-T18 [1]): 0.11%; palmitic acid, lipid as percentage of total fatty acid (ONC-T18 [1]): 26.90%; palmitoleic acid, lipid as percentage of total fatty acid (ONC-T18 [1]): 2.36%; pentadecanoic acid, lipid as percentage of total fatty acid (ONC-T18 [1]): 14.93%; pentadecenoic acid, lipid as percentage of total fatty acid (ONC-T18 [1]): 0.27%; stearic acid, lipid as percentage of total fatty acid (ONC-T18 [1]): 1.59%; vaccenic acid, lipid as percentage of total fatty acid (ONC-T18 [1]): 3.68%
^13C labeled oleic acid | – | – | – | – | – | – | – | – | – | – | – | – | – | – | – | – | – | – | – | – | fate of 13C carbon from enriched oleic acid (in words) (ONC-T18 [4]): found in subsequent polyunsaturated fatty acids
